Structures can show the parent of a compound that is named as a salt.
Molecular target: T1, calcium receptor (Homo sapiens, UniProt P41180)
T1 construct: expressed in transfected cells; host or cells: HEK 293 4.0-7
T1 sequence (P41180 20-1078): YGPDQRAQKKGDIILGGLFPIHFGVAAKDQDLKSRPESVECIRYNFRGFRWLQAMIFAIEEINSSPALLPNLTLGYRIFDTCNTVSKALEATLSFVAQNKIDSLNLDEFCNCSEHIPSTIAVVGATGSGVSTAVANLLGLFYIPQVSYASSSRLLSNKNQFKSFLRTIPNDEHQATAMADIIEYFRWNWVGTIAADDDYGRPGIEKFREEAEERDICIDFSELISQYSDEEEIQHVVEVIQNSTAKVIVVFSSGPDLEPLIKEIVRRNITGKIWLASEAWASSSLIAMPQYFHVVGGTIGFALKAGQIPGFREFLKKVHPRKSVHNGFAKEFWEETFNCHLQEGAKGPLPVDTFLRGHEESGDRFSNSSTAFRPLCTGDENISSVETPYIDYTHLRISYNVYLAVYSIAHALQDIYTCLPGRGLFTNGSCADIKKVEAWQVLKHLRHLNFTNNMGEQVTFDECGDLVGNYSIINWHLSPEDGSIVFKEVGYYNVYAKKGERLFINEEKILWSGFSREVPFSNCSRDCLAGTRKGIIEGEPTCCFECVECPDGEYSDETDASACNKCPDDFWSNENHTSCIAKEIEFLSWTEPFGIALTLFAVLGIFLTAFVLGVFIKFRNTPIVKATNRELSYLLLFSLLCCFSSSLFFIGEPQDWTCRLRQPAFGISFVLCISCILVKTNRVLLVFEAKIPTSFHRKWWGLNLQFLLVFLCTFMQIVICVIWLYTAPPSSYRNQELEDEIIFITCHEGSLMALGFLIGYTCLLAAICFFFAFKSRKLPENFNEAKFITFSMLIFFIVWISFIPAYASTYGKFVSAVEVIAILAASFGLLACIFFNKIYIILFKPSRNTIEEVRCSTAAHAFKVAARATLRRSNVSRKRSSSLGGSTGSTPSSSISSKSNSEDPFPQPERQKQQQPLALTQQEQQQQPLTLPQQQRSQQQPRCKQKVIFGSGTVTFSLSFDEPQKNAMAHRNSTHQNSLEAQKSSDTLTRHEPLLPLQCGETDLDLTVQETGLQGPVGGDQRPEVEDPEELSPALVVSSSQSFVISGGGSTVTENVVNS
Test: Calcium receptor activity in recombinant HEK 293 4.0-7 cells (fluorescence of dye-loaded cells)
Assay type: cell-based
Settings: recombinant HEK 293 4.0-7 cells containing a calcium receptor; 1 mM CaCl2, 1 mM MgCl2; fluorescence 340/510 nm
Protocol: Recombinant HEK 293 4.0-7 cells containing a calcium receptor were constructed as described by Rogers et al., J. Bone Miner. Res. 10 Suppl. 1:S483, 1995 (hereby incorporated by reference herein). The recombinant cells were loaded with fura-2 by incubating the cells in Dulbecco's modified Eagle's medium buffered with 20 mM HEPES containing about 5 μM […] for one hour at room temperature. Cells were then rinsed with Hank's balanced salt solution buffered with 20 mM HEPES containing 1 mM CaCl2 and 1 mM MgCl2. Compounds to be tested were then added to the cells and fluorescence was measured (excitation and emission wavelengths of 340 and 510 nm, respectively).

Row | Compound | EC50 [nM]
1 | C[C@@H](N[C@H](C)c1cccc2ccccc12)c1ccc(I)cc1 [Compound 26D, hydrochloride] | 47
2 | CCOc1ccc([C@@H](C)N[C@H](C)c2cccc3ccccc23)cc1C [Compound 26E, hydrochloride] | 77
3 | CC[C@@H](N[C@H](C)c1cccc2ccccc12)c1ccc(OC)c(C)c1 [Compound 26F, hydrochloride] | 15
4 | C[C@@H](NCC=Cc1ccccc1)c1cccc2ccccc12 [Compound 26H, (R)-N-(3-phenyl-2-propenyl)-1-(1-naphthyl)ethylamine hydrochloride] | 36
5 | CC(=Cc1ccccc1)CN[C@H](C)c1cccc2ccccc12 [Compound 26I, (R)-N-(2-methyl-3-phenyl-2-propenyl)-1-(1-naphthyl)ethylamine hydrochloride] | 126
6 | COc1ccccc1C=CCN[C@H](C)c1cccc2ccccc12 [Compound 26J, hydrochloride] | 47
7 | (R,R)-N-(1-Ethyl-4′-methoxy-3′-bromophenyl)-1-(1-naphthyl)ethylamine hydrochloride [Compound 26G] | 11
